We go through 16 molecules from patent publication US20230174485A1, “LIPOXYGENASE INHIBITORS” (SRI International, priority 2020, published 2023).

Several values for one entry are separate records, joined by “and”; a condition that tells them apart may be missing. Identical values can stand only once. Like-named read-outs stand apart in the source and are kept apart here.

Common to all, as to format: biochemical
Assay [1] deals with T1, recombinant 12-LOX enzyme (Homo sapiens, UniProt P18054).
T1 sequence (P18054 1-663): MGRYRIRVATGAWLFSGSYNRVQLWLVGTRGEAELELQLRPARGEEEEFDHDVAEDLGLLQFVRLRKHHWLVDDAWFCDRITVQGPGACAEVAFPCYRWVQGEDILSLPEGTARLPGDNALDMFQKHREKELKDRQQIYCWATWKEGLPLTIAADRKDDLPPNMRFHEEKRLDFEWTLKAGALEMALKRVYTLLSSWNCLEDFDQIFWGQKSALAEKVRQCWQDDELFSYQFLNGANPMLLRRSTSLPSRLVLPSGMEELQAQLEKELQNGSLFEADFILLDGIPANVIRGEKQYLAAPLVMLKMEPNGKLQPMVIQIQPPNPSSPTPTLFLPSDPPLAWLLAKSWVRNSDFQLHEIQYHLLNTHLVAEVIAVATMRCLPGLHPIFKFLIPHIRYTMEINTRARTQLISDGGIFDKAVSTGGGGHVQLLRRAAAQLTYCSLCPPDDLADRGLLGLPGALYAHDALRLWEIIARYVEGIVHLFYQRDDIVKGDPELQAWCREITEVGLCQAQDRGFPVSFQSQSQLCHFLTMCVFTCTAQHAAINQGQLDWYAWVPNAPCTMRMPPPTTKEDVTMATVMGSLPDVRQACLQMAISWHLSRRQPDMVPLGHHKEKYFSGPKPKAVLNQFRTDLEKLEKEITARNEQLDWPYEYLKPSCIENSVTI
The assay is described as follows: 12-LOX fluorescent assay. The following applies: several values in one cell = repeat determinations; read-out: IC50 (μM) values for in vitro lipoxygenase inhibition, 12-LOX. The method, boiled down: (§1)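 Compounds pre-incubated 15 min with 100 nM 12-LOX or 50 nM 15-LOX in 50 mM Tris pH 7.5, 0.05% Tween-20; reaction started with 20 μM AA/LA plus 1 μM DHR123.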

The target in a further assay is T2, recombinant 5-LOX (Homo sapiens, UniProt P09917).
T2 sequence (P09917 1-674): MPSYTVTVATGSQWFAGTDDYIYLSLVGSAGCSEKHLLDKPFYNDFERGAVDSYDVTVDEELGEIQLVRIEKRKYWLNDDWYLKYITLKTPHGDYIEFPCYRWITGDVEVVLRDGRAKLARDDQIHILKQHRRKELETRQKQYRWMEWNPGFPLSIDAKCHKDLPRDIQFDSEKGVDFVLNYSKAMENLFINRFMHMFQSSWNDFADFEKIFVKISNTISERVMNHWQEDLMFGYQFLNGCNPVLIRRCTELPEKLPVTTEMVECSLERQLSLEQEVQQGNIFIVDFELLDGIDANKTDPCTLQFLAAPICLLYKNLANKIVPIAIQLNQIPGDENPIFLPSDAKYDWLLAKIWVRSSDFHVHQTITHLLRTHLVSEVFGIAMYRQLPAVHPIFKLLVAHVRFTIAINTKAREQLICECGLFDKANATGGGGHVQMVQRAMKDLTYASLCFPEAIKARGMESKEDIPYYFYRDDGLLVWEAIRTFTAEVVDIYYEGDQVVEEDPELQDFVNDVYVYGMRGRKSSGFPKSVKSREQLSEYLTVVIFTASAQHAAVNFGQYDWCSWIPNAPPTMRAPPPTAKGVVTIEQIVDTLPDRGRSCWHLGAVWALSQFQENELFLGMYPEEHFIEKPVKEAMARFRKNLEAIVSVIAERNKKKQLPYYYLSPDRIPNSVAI
Put plainly: 5-LOX fluorescent assay. The following applies: several values in one cell = repeat determinations; read-out: IC50 (μM) values for in vitro lipoxygenase inhibition, 5-LOX. The method, boiled down: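 Lysate containing recombinant 5-LOX was pre-incubated 15 min with compounds in 50 mM Tris pH 7.5, 0.1 mM EDTA, 0.3 mM CaCl2. The reaction was started with 20 μM arachidonic acid, 100 μM ATP and 1 μM DHR123.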

Assay [2] has as its target T3, recombinant 15-LOX enzyme (Homo sapiens, UniProt P16050).
T3 sequence (P16050 1-662): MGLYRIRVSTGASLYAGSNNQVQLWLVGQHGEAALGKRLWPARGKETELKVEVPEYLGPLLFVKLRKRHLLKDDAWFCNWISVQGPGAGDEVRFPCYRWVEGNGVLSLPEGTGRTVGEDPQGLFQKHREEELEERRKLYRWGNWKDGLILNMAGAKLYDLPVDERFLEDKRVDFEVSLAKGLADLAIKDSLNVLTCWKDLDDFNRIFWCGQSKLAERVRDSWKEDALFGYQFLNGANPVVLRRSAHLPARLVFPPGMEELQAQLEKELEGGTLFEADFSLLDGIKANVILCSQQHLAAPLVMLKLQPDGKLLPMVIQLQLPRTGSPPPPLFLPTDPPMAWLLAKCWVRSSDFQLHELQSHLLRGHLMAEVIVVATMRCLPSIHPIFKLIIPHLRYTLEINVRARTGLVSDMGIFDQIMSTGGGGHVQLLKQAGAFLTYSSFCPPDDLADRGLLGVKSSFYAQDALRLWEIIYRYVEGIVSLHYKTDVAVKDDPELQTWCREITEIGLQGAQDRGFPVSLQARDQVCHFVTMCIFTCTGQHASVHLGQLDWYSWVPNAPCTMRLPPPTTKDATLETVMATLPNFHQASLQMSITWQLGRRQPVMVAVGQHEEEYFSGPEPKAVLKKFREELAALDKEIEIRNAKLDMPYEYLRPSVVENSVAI
Put plainly: 15-LOX fluorescent assay. Particulars: several values in one cell = repeat determinations. The procedure, abridged:
as §1

Where [3] appears, read: read-out: IC50 (μM) values for in vitro lipoxygenase inhibition, 15-LOX.

One may read the IC50 as the concentration needed to halve the response being measured. On to `Cc1c2[nH]c3ccccc3c2c(CCCN(C)C)c2[nH]c3ccccc3c12` [SS20308-0100-01, N,N-dimethyl-3-(12-methyl-5,11-dihydroindolo[3,2-b]carbazol-6-yl)propan-1-amine], for which the IC50 (in assay [1]; on recombinant 5-LOX; in assay [2] (setting [3])) was > 100 µM in each case.

On to `c1ccc2c(c1)CCc1ccc(NCCCN3CCOCC3)cc1N2` [SS20308-0303-01, N-(3-morpholinopropyl)-10,11-dihydro-5H-dibenzo[b,f]azepin-3-amine], for which the results for the IC50 (in assay [1]; at recombinant 5-LOX; in assay [2] (setting [3])) were 0.09 µM, 0.12 µM and 0.9 µM, respectively.

On to `c1ccc2c(c1)CCc1cc(C3CC3)c(NCCn3cncn3)cc1N2` [SS20308-0269-01, N-(2-(1H-1,2,4-triazol-1-yl)ethyl)-2-cyclopropyl-10,11-dihydro-5H-dibenzo[b,f]azepin-3-amine], for which the results for the IC50 (in assay [1]; at recombinant 5-LOX; in assay [2] (setting [3])) were 0.11 µM, 0.55 µM and 0.55 µM, respectively.

For the molecule `CN(C)CCOc1cc2c(cc1CNc1ccccc1)[nH]c1ccccc12` [SS20308-0119-01, N-((3-(2-(dimethylamino)ethoxy)-9H-carbazol-2-yl)methyl)aniline], the IC50 in assay [1] is 0.83 µM; at recombinant 5-LOX, 1.04 µM; in assay [2] (setting [3]) it was 0.71 µM.

In the case of `CN(C)CCCn1c2c(c3ccccc31)CC(Nc1ccccc1)CC2` (stereo not drawn) [SS20308-0159-01, 9-(3-(dimethylamino)propyl)-N-phenyl-2,3,4,9-tetrahydro-1H-carbazol-3-amine], the values for the IC50 (in assay [1]; on recombinant 5-LOX; in assay [2] (setting [3])) were 2.75 µM, 1.85 µM and 1.59 µM, respectively.

On to `Fc1cc2[nH]c3ccccc3c2cc1NCC1(Cn2cncn2)COC1` [SS20308-0304-01, N-((3-((1H-1,2,4-triazol-1-yl)methyl)oxetan-3-yl)methyl)-2-fluoro-9H-carbazol-3-amine], for which the 50% inhibitory concentration (IC50) was 0.09 µM in assay [1], 0.2 µM on recombinant 5-LOX and 0.4 µM in assay [2] (setting [3]).

Consider `Cc1cc(OCCn2cncn2)c2[nH]c3ccccc3c2c1` [SS20308-0017-01, 1-(2-(1H-1,2,4-triazol-1-yl)ethoxy)-3-methyl-9H-carbazole], for which the results for the IC50 (in assay [1]; on recombinant 5-LOX; in assay [2] (setting [3])) were 2.85 µM, 6.06 µM and 3.49 µM, respectively.

As for `CN(C)CCCc1cc(-c2cccc3c2NCC3)cc2[nH]c3ccccc3c12` [SS20308-0170-01, 3-(2-(indolin-7-yl)-9H-carbazol-4-yl)-N,N-dimethylpropan-1-amine], the values for the IC50 (in assay [1]; on recombinant 5-LOX; in assay [2] (setting [3])) were 2.17 µM, 4.38 µM and 1.53 µM, respectively.

Turning to `CN(C)CCC(c1ccccc1)c1ccc2[nH]c3ccccc3c2c1` (stereo not drawn) [SS20308-0183-01, 3-(9H-carbazol-3-yl)-N,N-dimethyl-3-phenylpropan-1-amino], the IC50 turned out to be 50.9 µM in assay [1], 5.01 µM on recombinant 5-LOX and 13.1 µM in assay [2] (setting [3]).

As to `CN(C)CCOc1cc2c(cc1-c1ccccc1[N+](=O)[O-])[nH]c1ccccc12` [SS20308-0076-01, N,N-dimethyl-2-(2-(2-nitrophenyl)-9H-carbazol-3-yloxy)ethanamine], the IC50 in assay [1] was 3.59 µM; at recombinant 5-LOX, 4.54 µM; in assay [2] (setting [3]) it was 5.7 µM.

With `CN(C)CCOc1cccc2c1-c1[nH]c3ccccc3c1CS2` [SS20308-0046-01, 2-(6,11-dihydrothiochromeno[4,3-b]indol-1-yloxy)-N,N-dimethylethanamine], the IC50 was determined as 0.62 µM in assay [1], 0.63 µM at recombinant 5-LOX and 0.97 µM in assay [2] (setting [3]).

Take `Clc1cc2c(cc1NCCn1cncn1)Nc1ccccc1CC2` [SS20308-0251-01, N-(2-(1H-1,2,4-triazol-1-yl)ethyl)-2-chloro-10,11-dihydro-5H-dibenzo[b,f]azepin-3-amine]: the IC50 is 0.05 µM and 0.22 µM in assay [1]; 0.45 µM and 0.56 µM on recombinant 5-LOX; 0.75 µM and 0.73 µM in assay [2] (setting [3]).

For the molecule `CN(C)CCc1cc(Nc2cccnc2)cc2c1[nH]c1ccccc12` [SS20308-0291-01, 1-(2-(dimethylamino)ethyl)-N-(pyridin-3-yl)-9H-carbazol-3-amine], the half-maximal inhibitory concentration (IC50) in assay [1] is 0.05 µM and 0.06 µM; on recombinant 5-LOX, 0.06 µM and 0.12 µM; in assay [2] (setting [3]) it was 0.02 µM and 0.16 µM.

For the molecule `Fc1ccc2[nH]c3cc(-c4ccccc4)c(NCC4(Cn5cncn5)COC4)cc3c2c1` [SS20308-0186-01, N-((3-((1H-1,2,4-triazol-1-yl)methyl)oxetan-3-yl)methyl)-6-fluoro-2-phenyl-9H-carbazol-3-amine], the IC50 in assay [1] is 0.03 µM and 0.01 µM; at recombinant 5-LOX it was 0.04 µM and 0.01 µM; in assay [2] (setting [3]), 0.05 µM and 0.02 µM.

Turning to `c1ccc2c(c1)[nH]c1cc3c(ccn3CCn3cncn3)cc12` [SS20308-0062-01, 1-(2-(1H-1,2,4-triazol-1-yl)ethyl)-1,9-dihydropyrrolo[2,3-b]carbazole], the IC50 is 0.19 µM and 0.24 µM in assay [1]; 0.53 µM and 0.42 µM at recombinant 5-LOX; 0.94 µM and 1.68 µM in assay [2] (setting [3]).

For `Fc1ccc2[nH]c3c(OCCn4cncn4)cc(Oc4ccccc4)cc3c2c1` [SS20308-0084-01, 1-(2-(1H-1,2,4-triazol-1-yl)ethoxy)-6-fluoro-3-phenoxy-9H-carbazole], the IC50 in assay [1] stood at 5.42 µM; at recombinant 5-LOX, 6.79 µM; in assay [2] (IC50 (μM) values for in vitro lipoxygenase inhibition, 15-LOX), 3.36 µM.
